Assay results reported in patent publication US20250268880A1, “3-(Hydroxy)-Pyridin-4(1H)-One Compounds and Methods of Making and Using the Same” (Georgia Tech Research Corporation, priority 2018, published 2025).
Where two headings read alike, the source gives them in different places.

Legend:
[1] = tested on: HP1-mediated heterochromatin gene repression at the CiA:Oct4 locus; assay: HP1-recruitment assay (CiA:Oct4), % GFP (+) cells by flow cytometry; assay type: cell-based, mouse; conditions: 48 h, CIP-rapamycin HP1 recruitment
Text: To elucidate the effect of DFP-based KDM inhibitors have on chromatin dynamics, we profiled them in an intracellular assay which measures heterochromatin formation speed. The chromatin assay (CiA) leverages chemical induced proximity (CTP) to recruit heterochromatin protein 1 (HP1) to a modified Oct4 locus. This reporter system inserts tandem arrays of Gal4 and zinc finger DNA binding domains in the promoter of one allele of Oct4, where the gene is replaced by a nuclear eGFP reporter. Protein fusions of Gal4-FKBP and FRRB—HP1 allow for direct chemical recruitment of HP1 to the CiA:Oct4 reporter locus upon addition of the chemical inducer of proximity (CIP)-rapamycin. After CIP-rapamycin addition, HIP1 is recruited to the reporter locus and brings histone methyltransferase enzymes to the chromatin reporter resulting in the repressive H3K9me3 mark being deposited. H3K9me3 deposition leads to heterochromatin formation and gene silencing (FIG. 7A). Others have shown that H3K4me3 marked nucleosomes impede H3K9 methyltransferases. Thus, we postulate that the active H3K4me3 mark mast be removed by KDM enzymes as part of the transformation from euchromatin to heterochromatin. Inhibition of KDMs, specifically those targeting H3K4me3, would result in a decrease in H3K9me3 accumulation, which would be measured in our assay as an increase in % GFP (+) cells.
To determine the effect of DFP-based KDM inhibitors on HP1-mediated gene repression, we treated CiA:Oct4 embryonic stem (ES) cells with doses of representative compounds ranging from […] for 48 h with and without CIP-rapamycin recruiting HP1 (FIG. 7B). […] Dose response curves of DFP derivatives abler 48 h with C) and without D) HP1 recruitment at 10000, 5000, 2500, 1000, 500, 250, and 0 nM concentrations. Flow cytometry was used to determine the % GFP (+) cells following treatment. n=6
The CiA:Oct4 recruitment system in mouse embryonic stem cells contains Gal4 and Zinc finger DNA binding arrays and a downstream nuclear eGFP gene in place of a single Oct4 allele as previously described. The CiA:Oct4 N118/N163 cell line containing viral integrations of N118 and N163 plasmids (N118-nLV EF-1α-Gal-FKBPx1-HA-PGK-Blast, N163-nLV EF-1α-HP1α (CS)-Frbx2(Frb+FrbWobb)-V5-PGK-Puro) was used for inhibition of HP1-mediated heterochromatin studies. All plasmids are freely available on addgene.
Day 0, CiA:Oct4 N118/163 cells were grown in ES media and seeded at a density of 10,000 cells per well (100.000 cells/ml) into gelatin coated 96 well plates. Day 1, culture media was aspirated and replaced with 100 μl ES media containing +/−6 nM rapamycin. 10 μM, 5 μM, 2.5 μM, 1 μM, 500 nM, and 250 nM concentrations of compound or DMSO were added using a TTP Labtech Mosquito HTS liquid handler. Days 2-4. fresh ES media+/−rapamycin and compound were added as in Day 1.
Day 3 and 5, cells were washed with PBS and trypsinized using 0.25% trypsin-EDTA. Trypsin was quenched with serum. Cells were resuspended by pipetting in preparation for flow cytometry analysis.
Flow cytometry data was acquired using the Intellicyt iQue Screener and analyzed with FlowJo software. Cell populations were gated based on forward and side scatter height. Single cell populations were gated using forward scatter area by forward scatter height. Autofluorescent cells were excluded and the remaining cells were gated into GFP (−) and GFP (+) populations based on DMSO control samples.

KDM6A (UTX) [2] = molecular target: T1, KDM6A (UTX) (Homo sapiens, UniProt O15550); assay: biochemical; conditions: for inhibition at 1 µM: read-out: KDM6A (UTX) Inhibition (%) 1 (μM); for inhibition at 10 µM: read-out: KDM6A (UTX) Inhibition (%) 10 (μM)
T1 sequence (O15550 whole entry): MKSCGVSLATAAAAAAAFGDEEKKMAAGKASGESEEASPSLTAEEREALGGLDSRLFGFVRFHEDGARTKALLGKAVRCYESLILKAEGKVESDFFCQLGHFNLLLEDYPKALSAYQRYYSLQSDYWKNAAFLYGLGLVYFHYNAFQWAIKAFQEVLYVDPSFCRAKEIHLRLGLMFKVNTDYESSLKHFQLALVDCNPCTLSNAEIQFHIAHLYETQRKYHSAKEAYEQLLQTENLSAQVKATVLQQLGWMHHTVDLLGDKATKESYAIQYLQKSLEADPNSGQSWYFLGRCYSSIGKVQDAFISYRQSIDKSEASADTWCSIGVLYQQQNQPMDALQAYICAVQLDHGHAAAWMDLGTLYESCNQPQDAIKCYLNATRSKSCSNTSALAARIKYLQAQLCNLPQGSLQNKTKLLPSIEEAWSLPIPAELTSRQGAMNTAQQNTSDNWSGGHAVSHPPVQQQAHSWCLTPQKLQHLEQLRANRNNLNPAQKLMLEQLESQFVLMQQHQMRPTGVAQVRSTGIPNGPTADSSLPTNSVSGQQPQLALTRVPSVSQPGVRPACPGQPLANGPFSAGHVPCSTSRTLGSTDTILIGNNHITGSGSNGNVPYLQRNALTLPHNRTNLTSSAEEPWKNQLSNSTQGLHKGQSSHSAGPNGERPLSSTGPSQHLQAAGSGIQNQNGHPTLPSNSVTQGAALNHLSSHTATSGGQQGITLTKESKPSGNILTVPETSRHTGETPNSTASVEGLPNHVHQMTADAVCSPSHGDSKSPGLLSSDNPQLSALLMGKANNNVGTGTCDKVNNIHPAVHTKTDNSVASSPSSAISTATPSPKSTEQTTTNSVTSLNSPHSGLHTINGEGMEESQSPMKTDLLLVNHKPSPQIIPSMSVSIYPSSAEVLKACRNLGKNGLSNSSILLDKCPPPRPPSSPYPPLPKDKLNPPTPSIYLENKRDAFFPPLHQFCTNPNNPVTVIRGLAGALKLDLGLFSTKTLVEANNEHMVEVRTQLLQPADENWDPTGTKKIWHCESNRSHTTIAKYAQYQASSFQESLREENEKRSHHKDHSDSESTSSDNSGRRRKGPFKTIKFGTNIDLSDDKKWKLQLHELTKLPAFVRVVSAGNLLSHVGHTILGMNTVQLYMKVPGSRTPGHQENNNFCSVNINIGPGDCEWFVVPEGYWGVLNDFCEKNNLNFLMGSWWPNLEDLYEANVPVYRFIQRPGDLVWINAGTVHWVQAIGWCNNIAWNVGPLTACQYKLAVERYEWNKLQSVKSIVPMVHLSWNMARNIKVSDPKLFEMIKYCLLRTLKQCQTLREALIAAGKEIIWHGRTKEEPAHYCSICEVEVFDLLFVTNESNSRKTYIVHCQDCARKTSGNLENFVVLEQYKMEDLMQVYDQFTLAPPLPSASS

MDA-MB-231 (TNBC BCa) = assay: Cell viability assay (MTS), MDA-MB-231; assay type: cell-based; conditions: NI = no inhibition, read-out: Antiproliferative Activity IC50 (μM) MDA-MB-231
KDM6A (UTX) [3] = molecular target: T1, KDM6A (UTX); conditions: for IC50 against KDM6A (in words): cell-free; for KDM6A (UTX) Inhibition (%) 1 (μM): compound at 1 μM; for KDM6A (UTX) Inhibition (%) 10 (μM): compound at 10 μM

## Cc1c(O)c(=O)ccn1CCn1cc(-c2ccccc2)nn1 [Compound 1a]
[1]
  inhibition of heterochromatin formation (in words): weak inhibitors
KDM6A (UTX) [2]
  inhibition at 1 µM: 12%
  inhibition at 10 µM: 96%

## Cc1ccc(-c2cn(CCCCn3ccc(=O)c(O)c3C)nn2)cc1 [Compound 2e, 3-Hydroxy-2-methyl-1-(4-(4-(p-tolyl)-1H-1,2,3-triazol-1-yl)butyl)pyridin-4(1H)-one]
KDM6A (UTX) [2]
  inhibition at 1 µM: 13%
  inhibition at 10 µM: 100%

## COc1ccccc1-c1cn(CCCCn2ccc(=O)c(O)c2C)nn1 [Compound 2g, 3-Hydroxy-1-(4-(4-(2-methoxyphenyl)-1H-1,2,3-triazol-1-y)butyl)-2-methylpyridin-4(1H)-one]
MDA-MB-231 (TNBC BCa); 72 h
  IC50: 9.6 µM

## COc1ccccc1-c1cn(CCCCCn2ccc(=O)c(O)c2C)nn1 [Compound 2h, 3-Hydroxy-1-(5-(4-(2-methoxyphenyl)-1H-1,2,3-triazol-1-yl)pentyl)-2-methylpyridin-4(1H)-one]
KDM6A (UTX) [2]
  inhibition at 1 µM: 3%
  inhibition at 10 µM: 99%

## COc1cccc(-c2cn(CCCCCn3ccc(=O)c(O)c3C)nn2)c1 [Compound 2j, 3-Hydroxy-1-(5-(4-(3-methoxyphenyl)-1H-1,2,3-triazol-1-yl)pentyl)-2-methylpyridin-4(1H)-one]
KDM6A (UTX) [3]
  IC50 against KDM6A (in words): low micromolar
[1]
  increase in GFP expression: 20%
  inhibition of heterochromatin formation (in words): significantly inhibited
KDM6A (UTX) [2]
  inhibition at 1 µM: 8%
  inhibition at 10 µM: 100%
MDA-MB-231 (TNBC BCa); Homo sapiens, MDA-MB-231, 72 h
  IC50: 19.6 µM

## COc1ccc(-c2cn(CCCCCn3ccc(=O)c(O)c3C)nn2)cc1 [Compound 2l, 3-Hydroxy-1-(5-(4-(4-methoxyphenyl)-1H-1,2,3-triazol-1-yl)pentyl)-2-methylpyridin-4(1H)-one]
KDM6A (UTX) [2]
  inhibition at 1 µM: 4%
  inhibition at 10 µM: 100%

## Cc1c(O)c(=O)ccn1CCCCCn1cc(-c2ccccc2F)nn1 [Compound 2m]
KDM6A (UTX) [3]
  KDM6A (UTX) Inhibition (%) 1 (μM): 16%
  KDM6A (UTX) Inhibition (%) 10 (μM): 100%
MDA-MB-231 (TNBC BCa); 72 h
  IC50: 18.3 µM

## Cc1c(O)c(=O)ccn1CCCCCn1cc(-c2cccc(F)c2)nn1 [Compound 2n, 1-(5-(4-(3-Fluorophenyl)-1H-1,2,3-triazol-1-yl)pentyl)-3-hydroxy-2-methylpyridin-4(1H)-one]
KDM6A (UTX) [2]
  inhibition at 1 µM: 5%
  inhibition at 10 µM: 100%

## Cc1c(O)c(=O)ccn1CCCCCn1cc(-c2ccc(F)cc2)nn1 [Compound 2o, 1-(5-(4-(4-Fluorophenyl)-1H-1,2,3-triazol-1-yl)pentyl)-3-hydroxy-2-methylpyridin-4(1H)-one]
KDM6A (UTX) [2]
  inhibition at 1 µM: 10%
  inhibition at 10 µM: 100%

## Cc1c(O)c(=O)ccn1CCCCCn1cc(-c2ccccc2C(F)(F)F)nn1 [Compound 2p, 3-Hydroxy-2-methyl-1-(5-(4-(2-(trifluoromethyl)phenyl)-1H-1,2,3-triazol-1-yl)pentyl)pyridin-4(1H)-one]
KDM6A (UTX) [2]
  inhibition at 1 µM: 15%
  inhibition at 10 µM: 99%

## Cc1c(O)c(=O)ccn1CCCCCn1cc(-c2ccc(N(C)C)cc2)nn1 [Compound 2r, 1-(5-(4-(4-(Dimethylamino)phenyl)-1H-1,2,3-triazol-1-yl)pentyl)-3-hydroxy-2-methylpyridin-4(11)-one]
MDA-MB-231 (TNBC BCa); 72 h
  IC50: 12.5 µM

## Cc1c(O)c(=O)ccn1CCCCCn1cc(-c2ccccn2)nn1 [Compound 2s, 3-Hydroxy-2-methyl-1-(5-(4-(pyridin-2-yl)-1H-1,2,3-triazol-1-yl)pentyl)pyridin-4(1H)-one]
KDM6A (UTX) [2]
  inhibition at 1 µM: 15%
  inhibition at 10 µM: 99%

## Cc1c(O)c(=O)ccn1CCCCCn1cc(-c2ccc(-c3ccncc3)cc2)nn1 [Compound 2t, 3-Hydroxy-2-methyl-1-(5-(4-(4-(pyridin-4-yl)phenyl)-1H-1,2,3-triazol-1-yl)pentyl)pyridin-4(1H)-one]
[1]
  concentration at which maximum inhibition of heterochromatin formation / gene repression is reached: 10 µM
  inhibition of heterochromatin formation (in words): significantly inhibited
KDM6A (UTX) [2]
  inhibition at 1 µM: 8%
  inhibition at 10 µM: 99%

## Cc1c(O)c(=O)ccn1CCCCCCn1cc(-c2ccc(-c3ccccc3)cc2)nn1 [Compound 2v, 1-(6-(4-([1,1-Biphenyl]-4-yl)-1H-1,2,3-triazol-1-yl)hexyl)-3-hydroxy-2-methylpyridin-4(1H)-one]
[1]
  concentration at which maximum inhibition of heterochromatin formation / gene repression is reached: 1 µM
  inhibition of heterochromatin formation (in words): significantly inhibited

## COc1ccc2cc(-c3cn(CCCCCCn4ccc(=O)c(O)c4C)nn3)ccc2c1 [Compound 2w, 3-Hydroxy-1-(6-(4-(6-methoxynaphthalen-2-yl)-1H-1,2,3-triazol-1-yl)hexyl)-2-methylpyridin-4(1H)-one]
[1]
  concentration at which maximum inhibition of heterochromatin formation / gene repression is reached: 1 µM
  inhibition of heterochromatin formation (in words): significantly inhibited

## Cc1c(O)c(=O)ccn1CCCCn1ccc(=O)c(O)c1C [Compound 3a]
KDM6A (UTX) [3]
  KDM6A (UTX) Inhibition (%) 1 (μM): 4%
  KDM6A (UTX) Inhibition (%) 10 (μM): 100%

## Cc1c(O)c(=O)ccn1CCCCCn1ccc(=O)c(O)c1C [Compound 3b]
KDM6A (UTX) [3]
  KDM6A (UTX) Inhibition (%) 1 (μM): 1%
  KDM6A (UTX) Inhibition (%) 10 (μM): 99%

## Cc1c(O)c(=O)ccn1CCCCCCn1ccc(=O)c(O)c1C [Compound 3c]
KDM6A (UTX) [3]
  KDM6A (UTX) Inhibition (%) 1 (μM): 2%
  KDM6A (UTX) Inhibition (%) 10 (μM): 100%

## Cc1c(O)c(=O)ccn1CCCCCCCn1ccc(=O)c(O)c1C [Compound 3d]
KDM6A (UTX) [3]
  KDM6A (UTX) Inhibition (%) 1 (μM): 3%
  KDM6A (UTX) Inhibition (%) 10 (μM): 100%

## Cc1c(O)c(=O)ccn1Cc1ccc(Cn2ccc(=O)c(O)c2C)cc1 [Compound 3f, 1,1′-(1,4-Phenylenebis(methylene))bis(3-hydroxy-2-methylpyridin-4(1H)-one)]
KDM6A (UTX) [2]
  inhibition at 1 µM: 5%
  inhibition at 10 µM: 100%

## Cc1c(O)c(=O)ccn1C1CCC(CC2CCC(n3ccc(=O)c(O)c3C)CC2)CC1 (stereo not drawn) [Compound 3g, 1,1′-(Methylenebis(cyclohexane-4,1-diyl))bis(3-hydroxy-2-methylpyridin-4(1H)-one)]
KDM6A (UTX) [3]
  IC50 against KDM6A (in words): low micromolar
[1]
  concentration at which maximum inhibition of heterochromatin formation / gene repression is reached: 2.5 µM
  inhibition of heterochromatin formation (in words): significantly inhibited
KDM6A (UTX) [2]
  inhibition at 1 µM: 9%
  inhibition at 10 µM: 100%

## CC/C(=C(\c1ccccc1)c1ccc(OCCN(C)Cc2ccc(-c3cn(CCn4ccc(=O)c(O)c4C)nn3)cc2)cc1)c1ccccc1 [Compound 36a]
KDM6A (UTX) [2]
  inhibition at 1 µM: 9%
  inhibition at 10 µM: 100%
MDA-MB-231 (TNBC BCa); Homo sapiens, MDA-MB-231, 72 h
  IC50: 1.6 µM
